Where two headings read alike, the source gives them in different places.
Key:
HER2 = HER2 (Homo sapiens, UniProt P04626); experiment: Caliper Mobility Shift Assay, inhibition of HER2 kinase activity; assay type: biochemical
[1] = test system: CAL27 (head and neck cancer); experiment: Transplanted tumor in nude mice, CAL27 model; assay type: in vivo, nude mice (BALB/c); conditions: 10 mg/kg/day orally for 21 days
From the text: (§1) Furthermore, more pharmacological models of tumor cell lines in nude mice were utilized to validate the inhibitory effects of compound Ie. The test method was specifically described as follows: H1975, A549, HCC827, A431, N87, MDA-MD-468 and CAL27 tumor cells respectively were inoculated into nude mice (BALB/c, male, 5-6 weeks of age), and when the mean tumor volume reaches 150 mm^3 mice was randomized into groups. The H1975 tumor model in nude mice includes one positive control group and three dosage groups of compound Ie (6.7 mg/kg/day, 13.4 mg/kg/day, and 20.1 mg/kg/day. The A549 tumor model in nude mice includes one positive control group, two dosage groups of compound Ie (10 mg/kg/day, 20 mg/kg/day), and one dosage group of Docetaxel (12 mg/kg/day). The HCC827 tumor model in nude mice includes one positive control group, two dosage groups of compound Ie (0.5 mg/kg/day, 2.5 mg/kg/day), and one dosage group of Erlotinib (12.5 mg/kg/day). The A431 tumor model in nude mice includes one positive control group, two dosage groups of compound Ie (2.5 mg/kg/day, 5 mg/kg/day), and one dosage group of Erlotinib (50 mg/kg/day). […] The tumor size and body weight of nude mice were recorded twice weekly from the first day of administration. The tumor volume was calculated using formula (1×w^2), wherein 1 and w respectively represents the maximum and minimum size in each measurement. […]

EGFR = EGFR (Homo sapiens, UniProt P00533); experiment: Caliper Mobility Shift Assay, inhibition of EGFR kinase activity; assay type: biochemical
[2] = test system: HCC827 (non-small cell lung cancer); experiment: Transplanted tumor in nude mice, HCC827 model; assay type: in vivo, nude mice (BALB/c)
From the text: as §1

[3] = test system: A549 (non-small cell lung cancer); experiment: Transplanted tumor in nude mice, A549 model; assay type: in vivo, nude mice (BALB/c)
From the text: as §1

EGFR kinases = EGFR kinases (Homo sapiens, UniProt P00533); experiment: Reversible inhibition test of enzyme activity of EGFR kinases; assay type: biochemical
A431(EGFR) = experiment: Transplanted tumor in nude mice, A431 model; assay type: in vivo, nude mice (BALB/c)
From the text: as §1

[4] = test system: H1975 (non-small cell lung cancer); experiment: Transplanted tumor in nude mice, further H1975 model; assay type: in vivo, nude mice (BALB/c); conditions: 6.7, 13.4, 20.1 mg/kg/day orally for 21 days
From the text: as §1

[5] = Pharmacokinetic experiments in CD-1 mice; assay type: in vivo; conditions: male, mouse, plasma; for half-life: read-out: Terminal t1/2 (converted)
Experimental: Experiment animals: CD-1 mice, male, 6-7 weeks of age; body weight: 20-25 g; Preparation of samples: the test compounds respectively were formulated to 0.2 mg/mL (for intravenous administration) and 1.0 mg/mL (for oral administration) for use. Administration routes: oral administration/intravenous administration. Amount and frequency of administration: 5 mL/kg for single administration.
Sample collection: blood was collected at the time points of 5 min, 15 min, 30 min, 1 h, 2 h, 4 h, 8 h and 24 h, about […] whole blood was collected from 3 animals at each time point. All of the animals were euthanized after the experiments.
Sample analysis: the collected samples were detected by LC-MS/MS, and the instrument model is SHIMADZU20A-API4000.
Pharmacokinetic data analysis: the obtained plasma concentration data were fitted and calculated using WinNolin according to non-compartment model.

EGFR^L858R/T790M = EGFR^L858R/T790M (Homo sapiens, UniProt P00533, L858R/T790M); experiment: Caliper Mobility Shift Assay, double mutant EGFR kinase; assay type: biochemical; conditions: read-out: Inhibition of Kinase Activity (IC50, nM) EGFR^L858R/T790M
Experimental: Half maximal inhibitory concentration IC50 (the concentration of a compound that is required for 50% inhibition of the activity of an enzyme) was tested based on an immobilized enzyme mixing with a specific substrate and the test compounds in different concentrations. The used test method was Caliper Mobility Shift Assay. […] […].
According to the same test method, the inhibitory effects of the compound of Formula Ie on mutant EGFR kinases were tested, including single mutant EGFR^LS58R, EGFR^T790M and double mutant EGFR^L858R/T790M kinases.

EGFR^L858R = EGFR^L858R (Homo sapiens, UniProt P00533, L858R); experiment: Caliper Mobility Shift Assay, mutant EGFR kinase; assay type: biochemical; conditions: read-out: Inhibition of Kinase Activity (IC50, nM) EGFR^L858R
[6] = test system: MDA-MD-468 (breast cancer); experiment: Transplanted tumor in nude mice, MDA-MD-468 model; assay type: in vivo, nude mice (BALB/c)
From the text: as §1

EGFR, sequence (P00533 25-1210): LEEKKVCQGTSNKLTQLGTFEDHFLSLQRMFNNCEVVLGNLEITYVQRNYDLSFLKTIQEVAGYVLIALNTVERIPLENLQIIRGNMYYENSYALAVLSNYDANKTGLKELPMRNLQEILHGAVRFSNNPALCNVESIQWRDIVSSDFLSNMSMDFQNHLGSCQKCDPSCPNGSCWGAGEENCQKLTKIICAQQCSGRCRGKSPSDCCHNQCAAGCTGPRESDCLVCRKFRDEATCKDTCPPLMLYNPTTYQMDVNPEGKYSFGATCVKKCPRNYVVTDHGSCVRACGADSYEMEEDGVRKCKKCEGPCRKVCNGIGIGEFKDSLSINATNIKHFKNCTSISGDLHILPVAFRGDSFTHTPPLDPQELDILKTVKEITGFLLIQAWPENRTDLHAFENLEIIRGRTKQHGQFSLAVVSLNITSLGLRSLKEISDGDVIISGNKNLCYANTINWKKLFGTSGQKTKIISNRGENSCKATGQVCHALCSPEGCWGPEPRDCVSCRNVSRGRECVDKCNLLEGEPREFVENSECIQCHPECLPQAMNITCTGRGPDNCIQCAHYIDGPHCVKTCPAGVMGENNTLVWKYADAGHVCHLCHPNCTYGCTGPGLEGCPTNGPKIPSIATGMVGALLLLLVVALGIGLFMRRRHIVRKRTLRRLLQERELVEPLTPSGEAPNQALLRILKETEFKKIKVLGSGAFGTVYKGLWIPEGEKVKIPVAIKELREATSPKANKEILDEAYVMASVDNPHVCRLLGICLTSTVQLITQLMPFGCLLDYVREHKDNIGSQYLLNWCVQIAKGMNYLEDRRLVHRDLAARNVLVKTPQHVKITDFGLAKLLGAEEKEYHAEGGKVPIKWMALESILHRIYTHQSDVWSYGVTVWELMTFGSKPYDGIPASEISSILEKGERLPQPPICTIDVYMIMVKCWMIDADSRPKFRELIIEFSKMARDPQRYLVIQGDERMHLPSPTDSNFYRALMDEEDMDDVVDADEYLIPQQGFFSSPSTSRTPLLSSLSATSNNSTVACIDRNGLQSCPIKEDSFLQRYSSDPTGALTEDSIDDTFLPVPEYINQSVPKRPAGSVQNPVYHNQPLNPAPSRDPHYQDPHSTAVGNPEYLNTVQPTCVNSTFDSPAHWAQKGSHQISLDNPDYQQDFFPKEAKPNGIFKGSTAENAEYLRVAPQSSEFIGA
HER2, sequence (P04626 23-1255): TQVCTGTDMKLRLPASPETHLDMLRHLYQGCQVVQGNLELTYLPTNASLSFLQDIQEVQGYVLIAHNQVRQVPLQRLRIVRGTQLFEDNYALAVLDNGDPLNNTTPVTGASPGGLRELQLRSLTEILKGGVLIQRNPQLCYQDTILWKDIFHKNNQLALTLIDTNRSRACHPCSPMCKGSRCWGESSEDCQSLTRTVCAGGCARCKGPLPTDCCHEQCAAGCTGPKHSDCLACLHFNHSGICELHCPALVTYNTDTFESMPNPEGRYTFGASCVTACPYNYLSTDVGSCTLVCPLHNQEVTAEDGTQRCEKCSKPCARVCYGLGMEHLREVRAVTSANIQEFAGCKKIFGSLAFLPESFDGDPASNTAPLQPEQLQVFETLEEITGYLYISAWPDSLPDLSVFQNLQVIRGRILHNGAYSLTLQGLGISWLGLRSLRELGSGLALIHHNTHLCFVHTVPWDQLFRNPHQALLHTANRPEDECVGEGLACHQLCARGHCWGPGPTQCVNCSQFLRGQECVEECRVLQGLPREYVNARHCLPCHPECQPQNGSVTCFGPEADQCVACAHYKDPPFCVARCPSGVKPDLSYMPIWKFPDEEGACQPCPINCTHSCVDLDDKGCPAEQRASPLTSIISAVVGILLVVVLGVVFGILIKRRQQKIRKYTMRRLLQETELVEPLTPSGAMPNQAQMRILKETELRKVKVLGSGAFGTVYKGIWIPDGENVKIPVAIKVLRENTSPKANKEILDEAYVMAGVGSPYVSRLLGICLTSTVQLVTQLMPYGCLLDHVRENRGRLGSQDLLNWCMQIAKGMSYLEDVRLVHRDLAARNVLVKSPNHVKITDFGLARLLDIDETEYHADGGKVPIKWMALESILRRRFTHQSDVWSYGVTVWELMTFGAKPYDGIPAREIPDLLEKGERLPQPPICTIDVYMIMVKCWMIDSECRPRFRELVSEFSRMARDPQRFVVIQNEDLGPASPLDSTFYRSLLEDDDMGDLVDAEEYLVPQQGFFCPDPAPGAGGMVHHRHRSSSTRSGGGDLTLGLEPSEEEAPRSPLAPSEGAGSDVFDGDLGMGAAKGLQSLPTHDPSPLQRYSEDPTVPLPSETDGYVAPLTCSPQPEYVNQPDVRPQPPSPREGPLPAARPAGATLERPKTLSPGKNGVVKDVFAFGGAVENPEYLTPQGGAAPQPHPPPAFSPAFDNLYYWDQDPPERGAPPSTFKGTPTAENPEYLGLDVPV
EGFR kinases, sequence (P00533 25-1210): as the sequence (P00533 25-1210) above
EGFR^L858R, sequence (P00533 25-1210 L858R): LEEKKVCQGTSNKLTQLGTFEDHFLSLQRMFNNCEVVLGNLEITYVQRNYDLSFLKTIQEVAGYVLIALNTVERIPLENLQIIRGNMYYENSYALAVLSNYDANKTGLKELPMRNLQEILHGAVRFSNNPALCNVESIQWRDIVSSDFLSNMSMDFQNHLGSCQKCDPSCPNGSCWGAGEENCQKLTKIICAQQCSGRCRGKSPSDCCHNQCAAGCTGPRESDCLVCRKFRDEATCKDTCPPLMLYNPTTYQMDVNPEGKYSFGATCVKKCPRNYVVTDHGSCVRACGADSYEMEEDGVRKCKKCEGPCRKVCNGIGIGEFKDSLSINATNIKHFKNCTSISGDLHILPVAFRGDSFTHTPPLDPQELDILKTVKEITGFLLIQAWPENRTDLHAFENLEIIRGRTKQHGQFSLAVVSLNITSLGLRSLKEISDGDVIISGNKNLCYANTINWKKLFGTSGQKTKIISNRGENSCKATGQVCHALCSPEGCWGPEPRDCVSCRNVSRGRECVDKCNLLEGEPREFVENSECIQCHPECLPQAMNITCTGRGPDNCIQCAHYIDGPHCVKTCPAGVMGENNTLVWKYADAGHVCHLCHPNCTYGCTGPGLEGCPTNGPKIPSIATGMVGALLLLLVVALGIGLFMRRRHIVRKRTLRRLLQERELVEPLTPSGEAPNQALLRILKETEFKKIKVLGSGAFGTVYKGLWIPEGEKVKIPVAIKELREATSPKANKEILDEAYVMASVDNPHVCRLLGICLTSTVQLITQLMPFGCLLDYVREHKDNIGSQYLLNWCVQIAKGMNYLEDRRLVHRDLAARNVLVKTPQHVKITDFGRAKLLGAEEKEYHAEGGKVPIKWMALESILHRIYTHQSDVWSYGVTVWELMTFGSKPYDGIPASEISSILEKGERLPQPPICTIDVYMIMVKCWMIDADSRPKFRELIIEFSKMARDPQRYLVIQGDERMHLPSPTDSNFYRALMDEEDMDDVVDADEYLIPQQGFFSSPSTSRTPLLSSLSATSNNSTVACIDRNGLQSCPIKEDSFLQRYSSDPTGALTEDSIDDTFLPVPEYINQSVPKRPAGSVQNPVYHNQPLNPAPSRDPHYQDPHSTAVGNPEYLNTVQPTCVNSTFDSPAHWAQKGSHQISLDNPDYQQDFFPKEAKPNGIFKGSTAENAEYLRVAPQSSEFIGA

CN(C)C/C=C/C(=O)Nc1cc2c(Nc3ccc(F)c(Cl)c3)ncnc2cc1OC(F)F [Compound Ie]
IC50 (HER2): 11.7 nM | inhibitory and therapeutic effects on CAL27 tumor model [1]: strong inhibitory effects and therapeutic effects | IC50 (EGFR): 0.4 nM | inhibitory effect on EGFR kinases relative to Afatinib, Neratinib and Gefitinib (EGFR): over two times | inhibitory and therapeutic effects on HCC827 tumor model ([2]; 0.5, 2.5 mg/kg/day orally for 21 days): strong inhibitory effects and therapeutic effects | inhibitory effects on tumor cell growth compared with other drugs, HCC827 model ([2]; versus Erlotinib (12.5 mg/kg/day)): stronger inhibitory effects | inhibitory and therapeutic effects on A549 tumor model ([3]; 10, 20 mg/kg/day orally for 21 days): strong inhibitory effects and therapeutic effects | inhibitory effects on tumor cell growth compared with other drugs, A549 model ([3]; versus Docetaxel (12 mg/kg/day)): stronger inhibitory effects | reversibility of inhibition of EGFR kinases (EGFR kinases): irreversibility | inhibitory and therapeutic effects on A431 tumor model (A431(EGFR); 2.5, 5 mg/kg/day orally for 21 days): strong inhibitory effects and therapeutic effects | inhibitory effects on tumor cell growth compared with other drugs, A431 model (A431(EGFR); versus Erlotinib (50 mg/kg/day)): stronger inhibitory effects | inhibitory and therapeutic effects on H1975 tumor model [4]: strong inhibitory effects and therapeutic effects | AUC(0-inf) ([5]; 1 mg/kg Intravenous Injection): 167 ng·h/mL | AUC(0-t) ([5]; 1 mg/kg Intravenous Injection): 137 ng·h/mL | MRT inf ([5]; 1 mg/kg Intravenous Injection): 2.88 h | clearance ([5]; 1 mg/kg Intravenous Injection): 115 mL/min/kg | half-life ([5]; 1 mg/kg Intravenous Injection): 2.31 h | Vd ([5]; 1 mg/kg Intravenous Injection, read-out: Vss): 18.9 L/kg | AUC(0-inf) ([5]; 5 mg/kg Oral Administration): 1600 ng·h/mL | AUC(0-t) ([5]; 5 mg/kg Oral Administration): 1150 ng·h/mL | Cmax ([5]; 5 mg/kg Oral Administration): 92.3 ng/mL | Tmax ([5]; 5 mg/kg Oral Administration): 4.33 h | half-life ([5]; 5 mg/kg Oral Administration): 7.11 h | IC50 (EGFR^L858R/T790M): 11 nM | IC50 (EGFR^L858R): 0.65 nM | inhibitory and therapeutic effects on MDA-MD-468 tumor model ([6]; 5, 10 mg/kg/day orally for 21 days): strong inhibitory effects and therapeutic effects | inhibitory effects on tumor cell growth compared with other drugs, MDA-MD-468 model ([6]; versus Docetaxel (12 mg/kg/week) and Afatinib (30 mg/kg/day)): stronger inhibitory effects
